Test [1] relates to C. elegans. Briefly: Survival (life expectancy and lifespan) of C. elegans in liquid culture. Format: in vivo. To be noted: for life expectancy / lifespan: liquid culture, 25 degrees Celsius; for life expectancy: control 19 days; for lifespan: control 28 days. On the procedure: The effect of geranylacetone (GA) and geranylgeranyl acetone (GGA) on the lengthening of lifespan and life expectancy was studied using the model organism, C. elegans, a system that is commonly used to study aging. GA and GGA were tested at three different concentrations of 5 μM 50 μM and 500 μM. The drugs were dissolved in ethanol, and thus ethanol with no drug present was used as the control in these experiments. 100 worms were used to test each concentration of the drug. GA is assumed to be a pure drug at 4.3 M and was dissolved in 100% ethanol. The drug was then diluted in S basal plus cholesterol plus bacteria OP50 such that the final concentration of ethanol on all plates was 1%. GGA was treated as 10% active with an inert carrier. Thus, all treatments were done with a 10-fold increase over the calculated concentration. GGA was suspended in 100% ethanol at 50 degrees Celsius and mixed for about hour after which the supernatant from this mixture was used. The drug was then diluted in S basal plus cholesterol plus bacteria OP50 such that the final concentration of ethanol on all plates was 1%. Wild type N2 C. elegans were obtained from the University of Minnesota Caenorhabditis Genetics Center. All assays were conducted on OP50 (CGCb) using 1× M9 OP50 worm food solution. Survival experiments were carried out in duplicate culture (2 cohorts, 50 worms each) at 25 degrees Celsius. Worms were exposed to the drugs at day 3 of life when set up in liquid culture with OP50 at 10^9 bacteria/ml. Worms were transferred daily for the first six days to remove progeny and to assess mortality. At day 10 and thereafter transfers were done 3 times per week. At each transfer, fresh drug was added to the desired concentration in a manner to achieve a final ethanol concentration of 1%.

The nature of test [2]: Extrapolation of C. elegans survival data to human life expectancy and lifespan. An excerpt: The extension of life span in the nematode can also be directly measured. The inventor has discovered that feeding GGA to nematodes increased both the mean and maximum lifespan of the nematode by about 50 percent. The increase in lifespan found in the nematode is equivalent to an increase in human life expectancy from 75 years to about 112 years and human lifespan from 120 years to 180 years.

Test [3] concerns C. elegans. Description: Lifespan of C. elegans under agar culture conditions. Format: in vivo. The method, then:
Additional studies to determine the effect of GGA on lifespan were performed using agar culture conditions. […] 100 μM GGA produces an 11% mean and 13% maximum percent increase in lifespan (Pvalue=0.039). The methods described above for the testing of GGA were employed in the testing of the class IIIa compound, LSG 712. […] 100 μM LSG 712 produces an 12% mean percent extension in lifespan (Pvalue=0.055).

Test [4] deals with serum thioredoxin. Briefly: Serum thioredoxin levels in human volunteers given GGA. Format: in vivo. Particulars: three 50 mg capsules per day, pre-treatment about 175 ng/ml. On the procedure: To test the effect of GGA in providing oxidative stress protection in humans, 2 human volunteers were given three 50 mg capsules of GGA per day. Serum levels of thioredoxin, a protein important in protection from oxidative stress was measured at various time intervals as shown in FIG. 9.

In test [5] the test system is C. elegans. Briefly: Cumulative percent loss of C. elegans cultured on agar plates over time. In kind it is in vivo. On the procedure: Another assay that can be used to measure lifespan extension in C. elegans is to measure the cumulative percent loss of C. elegans cultured on agar plates over time in the presence of GGA (LSG 711). C. elegans were maintained as described above. […] Lifespan extension in the presence of the class IIIa compound where R2 is acetone (LSG 712) was also measured in C. elegans using the cumulative percent loss of C. elegans over time as an assay. The methods described above for the testing of GGA were employed in the testing of LSG 712.

Test [6] relates to C. elegans. Description: Age dependent accumulation of lipofuscin pigment in C. elegans (confocal fluorescence). In kind it is in vivo. To be noted: for accumulation of lipofuscin: day 8, control about 65. The method, then:
The effect of GGA on the age dependent accumulation of lipofuscin pigment was measured in C. elegans after treatment of worms with various concentrations of the drug. Wild type C. elegans were obtained from the University of Minnesota Caenorhabditis Genetics Center. A 250 mM stock of GGA was dissolved in ethanol and then diluted into 1× M9 OP50 worm food solution. Synchronized eggs were placed on plates containing no drug, 5 μM, 50 μM, or 500 μM GGA and allowed to hatch. On day 8, the worms were washed in 9M buffer and placed on a microscope slide. The amount of lipofuscin pigment was measured using a confocal microscope measuring fluorescence at 488 nm. Fluorescent scans were performed to quantify the amount of lipofuscin pigment. The quantification was normalized to the total area size of the worm in nm^2. The effect of LSG 712 on the age dependent accumulation of lipofuscin pigment was measured in C. elegans after treatment of worms with various concentrations of the drug. Synchronized eggs were placed on plates containing no drug and various concentrations of LSG 712 and allowed to hatch. On day 16, the worms were washed in 9M buffer and placed on a microscope slide. The amount of lipofuscin pigment was measured using a confocal microscope measuring fluorescence at 488 nm.

For test [7], the system named is C. elegans. Briefly: Thermotolerance of C. elegans (35 degrees, SYTOX green fluorescence). Format: in vivo. The method, then:
The thermotolerance experiments were performed by workers at the Buck Institute on Aging in Novato, California under contract with the applicant. The workers at the Buck Institute performed these experiments under the direction and control of the applicant. The method used is that described in Sampayo et al., Aging Cell, 2: 319-326 (2003). In brief, 50 μl of the test compound dilution was added to a 10 ml week old agar plate spotted with 200 μl of concentrated E. coli OP50. The plates were set aside for 2-5 hours to allow the compounds to disperse. Age synchronous worm cultures of wide type (N2 strain) worms were prepared by hypochroride treatment of fertile adults and grown to three days of age at 20° C. The worms were washed off, resuspended in a small volume of S-basal and approximately 1000 worms were spotted onto each compound plate (˜1000 worms per plate) and the plates were incubated at 20° C. for 24 hours. Thermotolerance was measured using a Fluorskan Ascent fluorometer (Thermo Labsystems, MA). The fluorometer temperature was set to 35 °C and the fluorescence was measured in each well every 30 minutes over a 20-24 hour period, with a 20 millisecond integration time for each well. For SYTOX green fluorescence, the excitation wavelength was set to 485 nm and the emission wavelength at 538 nm. Analysis of individual fluorescence curves to determine the time of death was performed using the Fluoroskan Ascent software. Differences in thermotolerance were assessed using the Mantel-Haenszel Logrank test as implemented in Prism (GraphPad Software Inc.). Kaplan-Meier survival curves were generated using Prism survival analysis. […] C. elegans were maintained and handled as described above. The effect of a GGA analogue promoting thermotolerance was tested. The thermotolerance experiments were performed by workers at the Buck Institute on Aging in Novato, California under contract with the applicant. The workers at the Buck Institute performed these experiments under the direction and control of the applicant. […]

The mark [8] stands for this setting: extrapolated from C. elegans survival at 500 μM (FIG. 3).
Where [9] appears, read: feeding to nematodes, summary statement, concentration not given.

In test [1] (5 μM), `CC(=O)CC/C=C(\C)CCC=C(C)C` [GA, geranylacetone] showed a life expectancy of 21 days and a lifespan of 32 days. Besides, in test [1] (50 μM), the life expectancy is recorded as 21 days and the lifespan came to 30 days.

Regarding `CC(=O)CC/C=C(\C)CC/C=C(\C)CC/C=C(\C)CCC=C(C)C` [GGA, Geranylgeranyl acetone], the “equivalent human life expectancy” value in test [2] (equivalent of nematode lifespan increase, from 75 years) is “about 112 years”. Also, in test [2] (equivalent of nematode lifespan increase, from 120 years), the equivalent human lifespan is on record as 180 years. In addition, in test [2] (setting [8]), the “predicted human life expectancy” value is given as 85-100 years. Moreover, in test [2] (setting [8]), the “predicted human life span” value is on record as 120-159 years. Also, the figures for the life expectancy in test [1] (5 μM), in test [1] (50 μM) and in test [1] (500 μM) were 21 days, 23 days and 23 days, respectively. Besides, the lifespan is 33 days in test [1] (5 μM), 35 days in test [1] (50 μM) and 37 days in test [1] (500 μM). Besides, the “increase of maximum lifespan of the nematode” value in test [1] (setting [9]) is “about 50%”. Moreover, the “increase of mean lifespan of the nematode” value in test [1] (setting [9]) is recorded as “about 50%”. Moreover, the “maximum percent increase in lifespan” value in test [3] (50 μM) is recorded as 8%; in test [3] (100 μM) it was 13%. Further, the “mean percent increase in lifespan” value in test [3] (50 μM) and in test [3] (100 μM) was 11% in each case. Further, the serum thioredoxin entry in test [4] (one volunteer, after approximately 32 days) is reported as “about 275 ng/ml”; in test [4] (second volunteer), “about 425 ng/ml”. Further, the results for the “maximum percent increase in protection” value in test [5] (50 μM) and in test [5] (100 μM) were −7% and 12%, respectively. Further, the entries for the “mean percent increase in protection” value in test [5] (50 μM) and in test [5] (100 μM) were −4% and 7%, respectively. Further, the figures for the accumulation of lipofuscin result in test [6] (5 μM), in test [6] (50 μM) and in test [6] (500 μM) were “about 15 autofluorescent intensity/area units”, “under 5 autofluorescent intensity/area units” and “under 10 autofluorescent intensity/area units”, respectively. The “lipofuscin accumulation by confocal fluorescence microscopy (FIG. 5)” value in test [6] (qualitative) was “reduction of lipofuscin accumulation”. Besides, the “maximum increase in lifespan extension (thermotolerance)” value in test [7] (500 μM) worked out at 27%. The “mean increase in lifespan extension (thermotolerance)” value in test [7] (500 μM) came out at 29%.

`CC(=O)/C=C/C=C(\C)CC/C=C(\C)CC/C=C(\C)CCC=C(C)C` [LSG 712]: the “mean percent increase in lifespan” value in test [3] (50 μM) and in test [3] (100 μM) was 12% in each case. Besides, the results for the “maximum percent increase in protection” value in test [5] (50 μM) and in test [5] (100 μM) were 25% and 20%, respectively. The “mean percent increase in protection” value is on record as 21% in test [5] (50 μM) and 12% in test [5] (100 μM). Moreover, in test [6] (day 16, compared with non-treated control worms, concentration not given), the “reduction in the amount of lipofuscin pigment” value stood at 50%. In addition, the “mean increase in lifespan extension (thermotolerance)” value in test [7] (100 μM) amounted to 19%.

(Values after US20060135623A1, “Decrease in oxidative stress status through the administration of natural products and pharmaceutical drugs” (priority 2004, published 2006).)
